These results are taken from patent US20230141887A1, “CRYSTAL FORM OF DIAZASPIROPYRAN COMPOUND” (MEDSHINE DISCOVERY INC., priority 2020, published 2023).

The test system of series [1] is human biphenotypic B bone marrow mononuclear leukemia cell MV4-11 subcutaneous xenograft tumor. In words: Inhibition of MV4-11 subcutaneous xenograft tumor in vivo. Details: species or system nude mice. The note with it: for % Inhibition rate on day 14 / Average tumor volume Day 14: Oral, Once a day. Here is the method: In this assay, the anti-tumor effect of the compounds was evaluated using a nude mice model of subcutaneous xenograft tumor of human biphenotypic B bone marrow mononuclear leukemia cell MV4-11.
Human biphenotypic B bone marrow mononuclear leukemia cell MV4-11 was cultured in vitro in suspension with a RPMI1640 medium supplemented with 10% fetal bovine serum, 100 U/mL penicillin and 100 μg/mL streptomycin in a 5% CO2 cell incubator at 37° C. Routine passaging was performed twice a week. Cells in the logarithmic growth phase were collected, counted and then used for inoculation.
0.2 mL (1×10^7) of MV4-11 cells (plus matrigel, with a volume ratio of 1:1) were inoculated subcutaneously on the right back of each mouse. The grouping and dosing were started when the average tumor volume reached about 140-200 mm^3.
The diameter of the tumor was measured with vernier calipers twice a week. The formula for calculating the tumor volume is: V=0.5a×b^2, where a and b represent the long and short diameters of the tumor, respectively.

For a further series, the target named is T1, FLT3 (Homo sapiens, UniProt P36888).
T1 construct: purchased Promega
The experiment in a line: Assay of FLT3 inhibitory activity in vitro (Promega FLT3 Kinase Enzyme System, ADP-Glo). The class given is biochemical. The conditions noted are these: 50 μmol/L ATP, 30° C., 120 minutes. Here is the method: The assay was carried out in duplicate. […] After the reaction was completed, 5 μL of ADP-Glo reagent was added to each well. The system was further reacted at 30° C. for 40 minutes. After the reaction was completed, 10 μL of kinase detection reagent was added to each well and reacted at 30° C. for 30 minutes. The chemiluminescence was then read by the PerkinElmer Envision multi-label analyzer with an integration time of 0.5 seconds.
(§1) The original data was converted into an inhibition rate, and the IC50 value can be obtained by four-parameter curve fitting.
In general terms: ADP-Glo turns the ADP formed in a reaction into a luminescent signal.

The nature of series [2]: In vivo pharmacokinetic assay in rats. Details: species or system SD male rats. Here is the method: SD male rats aged 7 to 10 weeks were selected. The rats were fasted for at least 12 hours before the administration, and resumed feeding 4 hours after the administration. The rats had free access to water throughout the assay period.
On the day of the assay, the animals in the intravenous group were administrated the corresponding compound through a single injection in the tail vein at an administration volume of 5 mL/kg; the oral group were administrated the corresponding compound through a single intragastric gavage at an administration volume of 10 mL/kg. The animals were weighed before administration, and the administration volume was calculated based on the body weight. The time for collecting samples was: 0.083 (the injection group), 0.25, 0.5, 1, 2, 4, 6, 8, 24 h. About 200 μL of whole blood was collected from the jugular vein at each time point to prepare plasma for concentration determination by high-performance liquid chromatography-tandem mass spectrometry (LC-MS/MS). All animals were euthanized by CO2 anesthesia after collecting the PK samples at the last time point. The plasma concentrations were processed by non-compartmental model of WinNonlin™ Version 6.3 (Pharsight, Mountain View, Calif.) pharmacokinetic software, and the pharmacokinetic parameters were calculated by the linear logarithm trapezoidal method.

The test system of a further series is MV-4-11 cells. In words: Assay of inhibiting proliferation of MV-4-11 in vitro (CellTiter-Glo, 3 days). The note with it: MV-4-11 cell proliferation. The class given is cell-based, human. Here is the method: IMDM medium, fetal bovine serum, and penicillin/streptomycin antibiotics were purchased from Promega (Madison, Wis.). The MV-4-11 cell line was purchased from the Cell Bank of the Chinese Academy of Sciences. Envision Multi-Label Analyzer (PerkinElmer).
MV-4-11 cells were seeded in a white 96-well plate with 80 μL of cell suspension per well containing 10,000 MV-4-11 cells. The cell plate was cultured overnight in a carbon dioxide incubator.
The compounds to be tested were 5-fold serially diluted with a pipette to obtain eight concentrations, i.e., from 2 mmol/L to 26 nmol/L. The assay was carried out in duplicate. 78 μL of medium was added to the intermediate plate, and then 2 μL per well of the serially diluted compounds were transferred to the intermediate plate according to the corresponding position. After mixing, an amount of 20 μL per well was transferred to the cell plate. The cell plate was cultured in a carbon dioxide incubator for 3 days.
25 μL per well of Promega CellTiter-Glo reagent was added to the cell plate and incubated at room temperature for 10 minutes to stabilize the luminescence signal. A PerkinElmer Envision multi-label analyzer was used for reading.
as §1
In general terms: In ATP-based viability assays light output follows the ATP content of the culture.

pIC50: −log10 of the molar value.

T1 sequence (P36888 27-993): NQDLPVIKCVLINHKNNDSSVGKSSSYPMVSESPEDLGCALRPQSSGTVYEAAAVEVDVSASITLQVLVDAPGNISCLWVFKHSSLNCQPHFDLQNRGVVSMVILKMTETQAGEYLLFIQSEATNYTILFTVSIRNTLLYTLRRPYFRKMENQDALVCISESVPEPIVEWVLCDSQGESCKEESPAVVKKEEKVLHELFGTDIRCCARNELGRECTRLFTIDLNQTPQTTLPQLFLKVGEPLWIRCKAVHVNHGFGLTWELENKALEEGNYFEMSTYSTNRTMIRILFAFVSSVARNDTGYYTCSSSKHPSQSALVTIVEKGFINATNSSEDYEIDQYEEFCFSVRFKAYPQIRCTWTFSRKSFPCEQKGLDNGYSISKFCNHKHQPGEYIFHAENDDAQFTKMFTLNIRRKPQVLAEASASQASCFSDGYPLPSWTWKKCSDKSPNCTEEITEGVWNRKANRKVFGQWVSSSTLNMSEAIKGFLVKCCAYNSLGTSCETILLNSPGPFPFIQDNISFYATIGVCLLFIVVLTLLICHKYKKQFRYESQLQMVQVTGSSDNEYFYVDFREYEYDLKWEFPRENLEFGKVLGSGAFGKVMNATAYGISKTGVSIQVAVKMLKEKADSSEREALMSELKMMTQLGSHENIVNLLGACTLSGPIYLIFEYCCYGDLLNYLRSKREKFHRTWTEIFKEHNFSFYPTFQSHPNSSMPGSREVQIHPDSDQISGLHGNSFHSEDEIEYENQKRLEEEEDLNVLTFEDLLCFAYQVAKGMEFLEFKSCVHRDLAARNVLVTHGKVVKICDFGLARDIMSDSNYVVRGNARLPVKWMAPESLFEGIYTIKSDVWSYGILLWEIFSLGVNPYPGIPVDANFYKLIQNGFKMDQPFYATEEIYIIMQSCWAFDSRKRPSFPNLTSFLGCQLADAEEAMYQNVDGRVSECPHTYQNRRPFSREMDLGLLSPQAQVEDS

Broadly, the pIC50 is −log10 of the IC50, conventionally taken in molar units. Lower therefore signals a large IC50. For orientation: Vdss means the apparent volume that relates the amount in the body to the concentration in plasma or blood. A low value points to little distribution into tissue. By Cmax is commonly meant the highest concentration seen after dosing. For orientation: Tmax means the time from dosing to the highest level. For the compound `CCc1nc(C(N)=O)c(Nc2ccc(N3CCC4(CCN(C)CC4)CC3)c(C)c2)nc1NC1CCOCC1.O=C(O)C(F)(F)F`, in series [1] (1 mg/kg), the “% Inhibition rate on day 14” value amounted to 66.1% and the “Average tumor volume Day 14” value was found to be 375 mm^3. Also, in series [1] (1.5 mg/kg), the “% Inhibition rate on day 14” value is 81.0% and the “Average tumor volume Day 14” value is recorded as 273 mm^3. Moreover, in series [1] (4.5 mg/kg), the “% Inhibition rate on day 14” value is recorded as 114.7% and the “Average tumor volume Day 14” value is 51 mm^3. In series [1] (Day 0, one value for all groups, before dosing), the “Average tumor volume Day 0” value came out at 149 mm^3. The pIC50 against FLT3 is 9.38. In series [2] (Injection, 1 mg/kg), the AUC0-last was determined as 457 nm·h, the Cl turned out to be 61.2 mL/min/kg, the T1/2 is 2.99 h and the Vdss was 13.3 L/kg. Moreover, in series [2] (Oral, 2.5 mg/kg), the highest level (Cmax) was 40.6 nM, the F% is reported as 44.7% and the Tmax is listed as 8.00 h. In the series with MV-4-11 cells, this compound showed a pIC50 of 8.52.
